Measured values: patent US10793576B2, “Compound used as Bruton's tyrosine kinase inhibitor and preparation method and application thereof” (Chengdu Brilliant Pharmaceutical Co., LTD., priority 2017, dated 2020)
pIC50: −log10 of the molar value.

Legend:
DOHH2 cells = assay: Cell proliferation inhibition in vitro, DOHH2 cells by CTG assay; format: cell-based; conditions: Homo sapiens, DOHH-2, 72 hours, read-out: Inhibitions of cell activities IC50 (nM) DOHH2
Procedure: (§1) Test Example 2: Determination of the Inhibition of Cell Proliferation Inhibitory Activity in
(§2) vitro of compounds using different cell lines
(§3) 2: Preparation of the Compounds:
(§4) The compounds to be tested were diluted with DMSO to prepare a mother liquor at a final concentration of 10 mM for later use.
3.2 Test of DOHH2 Cells by CTG Assay
(§5) Logarithmic growth phase cells were collected, counted and resuspended in complete medium. The cell concentration was adjusted to a suitable concentration (determined according to the cell density optimization test results), and seeded to 96-well plate and 100 μl of the cell suspension was added to each well. The cells were incubated in an incubator at 37° C., 100% relative humidity and 5% C02 for 24 hours.
The compounds to be tested were diluted with the medium to the set corresponding action concentration, and the cells were added at 10 µl/well. The cells were incubated in an incubator set at 37° C., 100% relative humidity and 5% C02 for 72 hours.
The medium was aspirated and discarded, and 30 μl of test reagent was added. The plate was gentle shaken away from the light to lyse the cells.
(§6) As: OA of the sample (cell+test reagent+test compound)
(§7) Ac: OA of the negative control (cell+test reagent+DMSO)
(§8) Ab: OA of the positive control (medium+test reagent+DMSO)
(§9) IC50 curve fitting was performed using the software Graphpad Prism 5 or XLfit and IC50 values were calculated.

BTK kinase = BTK kinase (Homo sapiens (Human), UniProt Q06187); assay: In vitro assay for the inhibition of BTK kinase activity (Mobility-Shift Assay); format: biochemical
BTK kinase, sequence (Q06187 whole entry): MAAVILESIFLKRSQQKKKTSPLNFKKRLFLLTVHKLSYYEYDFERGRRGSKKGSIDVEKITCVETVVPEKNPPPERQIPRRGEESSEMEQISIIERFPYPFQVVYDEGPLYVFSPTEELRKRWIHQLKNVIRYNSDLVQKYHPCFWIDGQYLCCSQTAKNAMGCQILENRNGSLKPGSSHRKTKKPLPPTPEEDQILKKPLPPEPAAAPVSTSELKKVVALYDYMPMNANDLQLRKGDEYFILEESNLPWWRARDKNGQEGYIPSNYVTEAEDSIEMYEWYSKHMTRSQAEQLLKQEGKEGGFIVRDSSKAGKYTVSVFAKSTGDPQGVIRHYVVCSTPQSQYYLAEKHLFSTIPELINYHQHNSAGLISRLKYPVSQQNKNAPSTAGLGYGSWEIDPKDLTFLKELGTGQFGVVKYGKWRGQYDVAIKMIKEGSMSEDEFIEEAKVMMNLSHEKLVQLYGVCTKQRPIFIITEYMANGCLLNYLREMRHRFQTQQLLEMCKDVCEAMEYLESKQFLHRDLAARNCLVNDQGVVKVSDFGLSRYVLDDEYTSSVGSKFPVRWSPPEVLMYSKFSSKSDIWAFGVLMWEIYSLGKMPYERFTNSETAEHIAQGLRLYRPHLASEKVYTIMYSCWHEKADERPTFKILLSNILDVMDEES
Text: Mobility-Shift Assay, which is microfluidic chip technology, applies the basic concept of capillary electrophoresis to microfluidic environments. The substrate used for the experiment is a polypeptide with a fluorescent label. Under the action of enzyme in the reaction system, the substrate is transformed into a product, and the charge the substrate carries also changes accordingly. The use of the charge difference between the substrate and the product involved in Mobility-Shift Assay achieves the separating of the two, and they are tested respectively. The test results are expressed by conversion rates.
(3) 100% DMSO was added to the positive control well and the negative control well, respectively;

TMD8 cells = assay: Cell proliferation inhibition in vitro, TMD8 cells by CCK-8 method; format: cell-based; conditions: Homo sapiens, 72 hours, read-out: Inhibitions of cell activities IC50 (nM) TMD8
Procedure: as §1, §2, §3, §4
(§10) 3.1. Test of TMD8 and OCI-ly10 Cells by CCK-8 Method
as §5
(§11) The compounds to be tested were diluted with the medium to the set corresponding action concentration, and the cells were added at 25 µl/well. The cells were incubated in an incubator at 37° C., 100% relative humidity and 5% C02 for 72 hours.
(§12) The medium was aspirated and discarded, and a complete medium containing 10% of the test reagent was added and the obtained system was incubated in a 37° C. incubator for 1 hour-4 hours.
as §6, §7, §8, §9

OCI-LY10 cells = assay: Cell proliferation inhibition in vitro, OCI-ly10 cells by CCK-8 method; format: cell-based; conditions: Homo sapiens, 72 hours, read-out: Inhibitions of cell activities IC50 (nM) OCI-LY10
Procedure: as §1, §2, §3, §4, §10, §5, §11, §12, §6, §7, §8, §9

| Compound | IC50 (DOHH2 cells) | pIC50 (BTK kinase) | IC50 (TMD8 cells) | IC50 (OCI-LY10 cells) |
| --- | --- | --- | --- | --- |
| CC#CC(=O)N1CC2(CC2)C[C@H]1c1nc(-c2ccc(C(=O)Nc3ccccn3)cc2)c2c(N)nccn12 [Example 1, (S)-4-(8-amino-3-(5-(but-2-ynoyl)-5-azaspiro[2.4]heptan-6-yl)imidazo[1,5-a]pyrazin-1-yl)-N-(pyridin-2-yl)benzamide] | > 1000 nM | 7.08 |  |  |
| C=CC(=O)N1CC2(CC2)C[C@H]1c1nc(-c2ccc(C(=O)Nc3ccccn3)cc2)c2c(N)nccn12 [Example 2, (S)-4-(3-(5-acryloyl-5-azaspiro[2.4]heptan-6-yl)-8-aminoimidazo[1,5-a]pyrazin-1-yl)-N-(pyridin-2-yl)benzamide] | 917 nM | 7.62 |  |  |
| CC#CC(=O)N1CC2CCCC2C1c1nc(-c2ccc(C(=O)Nc3ccccn3)cc2)c2c(N)nccn12 (stereo not shown) [Example 4] | 673 nM | 8.35 | 2.1 nM | 3.5 nM |
| CC#CC(=O)N1C[C@H]2[C@@H]([C@H]1c1nc(-c3ccc(C(=O)Nc4ccccn4)cc3)c3c(N)nccn13)C2(C)C [Example 6] | > 1000 nM | 8.04 | 5.4 nM | 0.21 nM |
| C=CC(=O)N1CC2CC1(c1nc(-c3ccc(C(=O)Nc4ccccn4)cc3)c3c(N)nccn13)CO2 (stereo not shown) [Example 9] | 74.3 nM | 8.55 | 0.2 nM | 0.13 nM |
| CC#CC(=O)N1CC2CC1(c1nc(-c3ccc(C(=O)Nc4ccccn4)cc3)c3c(N)nccn13)CO2 (stereo not shown) [Example 10] | > 1000 nM | 7.14 | 6.3 nM | 2.1 nM |
| CC#CC(=O)N1C2CCC1(c1nc(-c3ccc(C(=O)Nc4ccccn4)cc3)c3c(N)nccn13)COC2 (stereo not shown) [Example 12] | 129 nM | 7.85 | 4.3 nM | 7.4 nM |
| C=CC(=O)N1C2CN[C@@H](C2)C1c1nc(-c2ccc(C(=O)Nc3ccccn3)cc2)c2c(N)nccn12 (stereo partly shown) [Example 13] | 138 nM | 8.48 | 0.38 nM | 0.67 nM |
| CC#CC(=O)N1C2CN[C@@H](C2)C1c1nc(-c2ccc(C(=O)Nc3ccccn3)cc2)c2c(N)nccn12 (stereo partly shown) [Example 14] | > 1000 nM | 7.90 | 7.5 nM | 1.8 nM |
| C=CC(=O)N1C2C[C@@H](C1c1nc(-c3ccc(C(=O)Nc4ccccn4)cc3)c3c(N)nccn13)N(C)C2 (stereo partly shown) [Example 15] | 716 nM | 7.76 | 64.5 nM | 17.6 nM |
| C=CC(=O)N1C2C[C@@H](C1c1nc(-c3ccc(C(=O)Nc4ccccn4)cc3)c3c(N)nccn13)N(C(C)C)C2 (stereo partly shown) [Example 16] | > 1000 nM | 8.02 | 1.6 nM | 3.1 nM |
| CC#CC(=O)N1C2C[C@@H](C1c1nc(-c3ccc(C(=O)Nc4ccccn4)cc3)c3c(N)nccn13)N(C(C)C)C2 (stereo partly shown) [Example 17] | > 1000 nM | 7.32 |  |  |
| CC#CC(=O)N1[C@@H]2CC[C@@H](C2)[C@H]1c1nc(-c2ccc(C(=O)Nc3ccccn3)cc2)c2c(N)nccn12 [Example 23, 4-(8-amino-3-((1R,3S,4S)-2-(but-2-ynoyl)-2-azabicyclo[2.2.1]heptan-3-yl)imidazo [1,5-a]pyrazin-1-yl)-N-(pyridin-2-yl)benzamide] | > 1000 nM | 7.31 | 1.1 nM | 2.4 nM |
| C=CC(=O)N1CCC2CC21c1nc(-c2ccc(C(=O)Nc3ccccn3)cc2)c2c(N)nccn12 (stereo not shown) [Example 32] | > 1000 nM | 7.24 |  |  |
| C=CC(=O)N1CC2CCCC2C1c1nc(-c2ccc(C(=O)Nc3cc(C(F)(F)F)ccn3)cc2)c2c(N)nccn12 (stereo not shown) [Example 42] | 104 nM | 8.28 | 0.26 nM | 0.33 nM |
| CC#CC(=O)N1CC2CCCC2C1c1nc(-c2ccc(C(=O)Nc3cc(C(F)(F)F)ccn3)cc2)c2c(N)nccn12 (stereo not shown) [Example 43] | 217 nM | 8.36 | 2.3 nM | 0.42 nM |

| Compound | IC50 (DOHH2 cells) | pIC50 (BTK kinase) | IC50 (TMD8 cells) | IC50 (OCI-LY10 cells) |
| --- | --- | --- | --- | --- |
| C=CC(=O)N1C[C@H]2[C@@H](C1c1nc(-c3ccc(C(=O)Nc4cc(C(F)(F)F)ccn4)cc3)c3c(N)nccn13)C2(C)C (stereo partly shown) [Example 44] | 717 nM | 7.47 | 7.8 nM | 1.3 nM |
| CC#CC(=O)N1C[C@H]2[C@@H](C1c1nc(-c3ccc(C(=O)Nc4cc(C(F)(F)F)ccn4)cc3)c3c(N)nccn13)C2(C)C (stereo partly shown) [Example 45] | 285 nM | 7.77 | 6.4 nM | 1.1 nM |
| C=CC(=O)N1C2CC[C@@H](C2)C1c1nc(-c2ccc(C(=O)Nc3cc(C(F)(F)F)ccn3)cc2)c2c(N)nccn12 (stereo partly shown) [Example 46] | 94.3 nM | 8.38 | 3.4 nM | 0.37 nM |
| C=CC(=O)N1C2CCC1(c1nc(-c3ccc(C(=O)Nc4cc(C(F)(F)F)ccn4)cc3)c3c(N)nccn13)COC2 (stereo not shown) [Example 48] | 103 nM | 8.68 | 0.31 nM | 0.46 nM |
| CC#CC(=O)N1C2CCC1(c1nc(-c3ccc(C(=O)Nc4cc(C(F)(F)F)ccn4)cc3)c3c(N)nccn13)COC2 (stereo not shown) [Example 49] | 436 nM | 8.32 | 6.4 nM | 3.4 nM |
| C=CC(=O)N1C2CN[C@@H](C2)C1c1nc(-c2ccc(C(=O)Nc3cc(C(F)(F)F)ccn3)cc2)c2c(N)nccn12 (stereo partly shown) [Example 52] | 174 nM | 8.62 | 6.4 nM | 0.35 nM |
| C=CC(=O)N1C2CN[C@@H](C2)C1c1nc(-c2ccc(C(=O)Nc3cc(C)ccn3)cc2)c2c(N)nccn12 (stereo partly shown) [Example 66] | > 1000 nM | 7.47 |  |  |
| CC#CC(=O)N1C2CN[C@@H](C2)C1c1nc(-c2ccc(C(=O)Nc3cc(C)ccn3)cc2)c2c(N)nccn12 (stereo partly shown) [Example 67] | > 1000 nM | 7.16 |  |  |
| C=CC(=O)N1C2CN[C@@H](C2)C1c1nc(-c2ccc(C(C)(O)c3ccccc3)cc2)c2c(N)nccn12 (stereo partly shown) [Example 86] | 917 nM | 7.54 |  |  |
| CC#CC(=O)N1C2CN[C@@H](C2)C1c1nc(-c2ccc(C(C)(O)c3ccccc3)cc2)c2c(N)nccn12 (stereo partly shown) [Example 87] | 786 nM | 7.38 |  |  |
| CN(C/C=C/C(=O)N1CC2(CC2)C[C@H]1c1nc(-c2ccc(C(=O)Nc3ccccn3)cc2)c2c(N)nccn12)C1CC1 [Example 114, (S,E)-4-(8-amino-3-(5-(4-(cyclopropyl(methyl)amino)-2-butenoyl)-5-azaspiro[2.4]heptan-6-yl)imidazo[1,5-a]pyrazin-1-yl)-N-(pyridin-2-yl)benzamide] |  | 7.09 |  |  |
| CC(C)/C=C(/C#N)C(=O)N1CC2(CC2)C[C@H]1c1nc(-c2ccc(C(=O)Nc3ccccn3)cc2)c2c(N)nccn12 [Example 116, (S,Z)-4-(8-amino-3-(5-(2-cyano-4-methyl-2-pentenoyl)-5-azaspiro [2.4]heptan-6-yl)imidazo[1,5-a]pyrazin-1-yl)-N-(pyridin-2-yl)benzamide] |  | 6.56 |  |  |
| CC(C)/C=C(/C#N)C(=O)N1CC2CCCC2[C@H]1c1nc(-c2ccc(C(=O)Nc3ccccn3)cc2)c2c(N)nccn12 (stereo partly drawn) [Example 117, 4-(8-amino-3-((1S)-2-((Z)-2-cyano-4-methyl-2-pentenoyl)octahydrocyclopenta [c]pyrrol-1-yl)imidazo[1,5-a]pyrazin-1-yl)-N-(pyridin-2-yl)benzamide] |  | 6.98 |  |  |
| CC#CC(=O)N1CC2CCC1(c1nc(-c3ccc(C(=O)Nc4ccccn4)cc3)c3c(N)nccn13)CC2 [Example 121, 4-(8-amino-3-(2-(but-2-ynoyl)-2-azabicyclo[2.2.2]octan-1-yl)imidazo[1,5-a]pyrazin-1-yl)-N-(pyridin-2-yl)benzamide] |  | 7.37 |  |  |
| C=CC(=O)N1CC2CCC1(c1nc(-c3ccc(C(=O)Nc4ccccn4)cc3)c3c(N)nccn13)C2 (stereo not shown) [Example 122, 4-(3-(2-acryloyl-2-azabicyclo[2.2.1]heptan-1-yl)-8-aminoimidazo[1,5-a]pyrazin-1-yl)-N-(pyridin-2-yl)benzamide] |  | 7.31 |  |  |
| CC#CC(=O)N1CC2CCC1(c1nc(-c3ccc(C(=O)Nc4ccccn4)cc3)c3c(N)nccn13)C2 (stereo not shown) [Example 123, 4-(8-amino-3-(2-(but-2-ynoyl)-2-azabicyclo[2.2.1]heptan-1-yl)imidazo[1,5-a]pyrazin-1-yl)-N-(pyridin-2-yl)benzamide] |  | 7.14 |  |  |
